# Test system: Mtb H37Rv strain
# Experiment: Resazurin (Alamar Blue) MIC assay against replicating Mtb
# Assay type: cell-based, Mycobacterium tuberculosis
# Details: Mycobacterium tuberculosis, H37RV, in vitro cultured Mtb H37Rv; lowest concentration inhibiting ≥90% growth; initial hits, quinoxaline di-N-oxides, positive controls; read-out: Mtb MIC (H37Rv)
row,Structure (SMILES),MIC [µg/mL]
1,CCCCCC(=O)c1c(C)[n+]([O-])c2cc(Cl)ccc2[n+]1[O-] [SRI20],5
2,Cc1c(C(=O)C(C)C)[n+]([O-])c2cc(Cl)ccc2[n+]1[O-] [SRI28],10
3,COc1ccc2c(c1)[n+]([O-])c(C(=O)CC(C)C)c(C)[n+]2[O-] [SRI43],20
4,CCC(=O)c1c(CC)[n+]([O-])c2cc(Cl)ccc2[n+]1[O-] [SRI23],5
5,CC(C)=CCC/C(C)=C/CCC(=O)c1c(C)[n+]([O-])c2cc(Cl)c(Cl)cc2[n+]1[O-] [SRI56],2.5
6,CCCCC(=O)c1c(C)[n+]([O-])c2ccc(Cl)cc2[n+]1[O-] [SRI17],2.5
7,Cc1c(C(=O)c2ccccc2)[n+]([O-])c2ccc([N+](=O)[O-])cc2[n+]1[O-] [SRI10],5
8,Cc1c(C(=O)C(C)C)[n+]([O-])c2ccc(Cl)cc2[n+]1[O-] [SRI27],> 40
9,CCC(=O)c1c(CC)[n+]([O-])c2cc(C)ccc2[n+]1[O-] [SRI32],5
10,Cc1c(C(=O)c2ccccc2)[n+]([O-])c2cc(Cl)ccc2[n+]1[O-] [SRI8],10
11,CC(C)=CCC/C(C)=C/CCC(=O)c1c(C)[n+]([O-])c2ccc(C)cc2[n+]1[O-] [SRI48],5
12,Cc1ccc2c(c1)[n+]([O-])c(C)c(C(=O)CC(C)C)[n+]2[O-] [SRI34],20
13,C=CCCC(=O)c1c(C)[n+]([O-])c2cc(Cl)ccc2[n+]1[O-] [SRI22],5
14,"O=C(NCc1ccccn1)c1ccccc1[N+](=O)[O-] [BAS 00623753, 2-nitro-N-pyridin-2-ylmethyl-benzamide]",5
15,CCC(=O)c1c(CC)[n+]([O-])c2ccc(Cl)cc2[n+]1[O-] [SRI24],10
16,CCCCC(=O)c1c(C)[n+]([O-])c2cc(C)ccc2[n+]1[O-] [SRI30],5
17,CC(=O)c1c(C)[n+]([O-])c2ccc(Cl)cc2[n+]1[O-] [SRI4],5
18,COc1ccc2c(c1)[n+]([O-])c(C)c(C(=O)c1ccccc1)[n+]2[O-] [SRI9],5
19,Cc1c(C(=O)CC(C)C)[n+]([O-])c2cc(Cl)ccc2[n+]1[O-] [SRI18],10
20,"CO[C@H]1/C=C/O[C@@]2(C)Oc3c(C)c(O)c4c(O)c(c(/C=N/N5CCN(C)CC5)c(O)c4c3C2=O)NC(=O)/C(C)=C\C=C\[C@H](C)[C@H](O)[C@@H](C)[C@@H](O)[C@@H](C)[C@H](OC(C)=O)[C@@H]1C [Rifampicin, reference compound]",0.0031 to 0.012
21,COc1ccc2c(c1)[n+]([O-])c(C(=O)c1cccnc1)c(C)[n+]2[O-] [SRI12],0.64
22,Cc1c(C(=O)O)[n+]([O-])c2ccccc2[n+]1[O-] [SRI53],> 40
23,"NNC(=O)c1ccncc1 [isoniazid, reference compound]",0.0031 to 0.012
24,Cc1c(C(=O)C2CC2)[n+]([O-])c2ccc(Cl)cc2[n+]1[O-] [SRI25],5
25,"c1coc(CNCc2c[nH]c3ccccc23)c1 [BAS 7571651, furan-2-ylmethyl-(1H-indol-3-ylmethyl)-amine]",40
26,Cc1c(C(=O)c2cccnc2)[n+]([O-])c2cc(Cl)c(Cl)cc2[n+]1[O-] [SRI55],2.5

# Same assay, conditions: Mycobacterium tuberculosis, H37RV, read-out: Mtb MIC (H37Rv), in vitro cultured Mtb H37Rv; lowest concentration inhibiting ≥90% growth; initial hits, quinoxaline di-N-oxides, positive controls
row,Structure (SMILES),MIC [µg/mL]
1,CC(C)=CCCC(=O)c1c(C)[n+]([O-])c2cc(Cl)c(Cl)cc2[n+]1[O-] [SRI57],1.2

# Same assay, conditions: Mycobacterium tuberculosis, H37RV, read-out: Mtb MIC (H37Rv), synthesized BAS 00623753 and arylamide analogs (Table 1)
row,Structure (SMILES),MIC [µg/mL]
1,"O=C(NCc1ccccn1)c1ccccc1[N+](=O)[O-] [BAS 00623753, 2-nitro-N-pyridin-2-ylmethyl-benzamide]",≥ 50

# Same assay, conditions: Mycobacterium tuberculosis, H37RV, synthesized BAS 00623753 and arylamide analogs (Table 1); read-out: Mtb MIC (H37Rv)
row,Structure (SMILES),MIC [µg/mL]
1,CC(C)(NC(=O)c1ccccc1[N+](=O)[O-])c1ncccn1 [JSF-2176],> 50
2,O=C(NCc1ncccn1)c1ccccc1[N+](=O)[O-] [JSF-2178],> 50

# Same assay, conditions: in vitro cultured Mtb H37Rv; lowest concentration inhibiting ≥90% growth; initial hits, quinoxaline di-N-oxides, positive controls
row,Structure (SMILES),Mtb MIC (H37Rv) [µg/mL]
1,Cc1c(C(=O)c2ccccc2)[n+]([O-])c2ccc(Cl)cc2[n+]1[O-] [SRI7],5
2,CCCCCC(=O)c1c(C)[n+]([O-])c2cc(C)ccc2[n+]1[O-] [SRI31],20
3,Cc1ccc2c(c1)[n+]([O-])c(C)c(C(=O)c1ccccc1)[n+]2[O-] [SRI6],>40
4,CCCCCC(=O)c1c(C)[n+]([O-])c2cc(Cl)c(Cl)cc2[n+]1[O-] [SRI59],2.5
5,Cc1ccc2c(c1)[n+]([O-])c(C)c(C(=O)C(F)(F)F)[n+]2[O-] [SRI14],10
6,CC(=O)c1c(C)[n+]([O-])c2cc([N+](=O)[O-])ccc2[n+]1[O-] [SRI5],2.5
7,CC(C)=CCCC(=O)c1c(C)[n+]([O-])c2cc(C)ccc2[n+]1[O-] [SRI36],10
8,CCCCCC(=O)c1c(C)[n+]([O-])c2ccc(Cl)cc2[n+]1[O-] [SRI21],10
9,Cc1ccc2c(c1)[n+]([O-])c(C)c(C(=O)C1CC1)[n+]2[O-] [SRI33],5
10,CCCCCC(=O)c1c(C)[n+]([O-])c2ccc(OC)cc2[n+]1[O-] [SRI40],>40
11,C=CCCC(=O)c1c(C)[n+]([O-])c2cc(C)ccc2[n+]1[O-] [SRI35],4.3
12,Cc1ccc2c(c1)[n+]([O-])c(C)c(C(=O)C(C)C)[n+]2[O-] [SRI38],10
13,Cc1c(C(=O)c2ccccc2)[n+]([O-])c2cc(Cl)c(Cl)cc2[n+]1[O-] [SRI62],2.5
14,CCCCC(=O)c1c(C)[n+]([O-])c2cc(Cl)ccc2[n+]1[O-] [SRI16],5
15,Cc1c(C(=O)C2CC2)[n+]([O-])c2cc(Cl)ccc2[n+]1[O-] [SRI26],5
16,Cc1c(C(=O)CC(C)C)[n+]([O-])c2ccc(Cl)cc2[n+]1[O-] [SRI19],5
17,COc1ccc2c(c1)[n+]([O-])c(C)c(C(=O)C(F)(F)F)[n+]2[O-] [SRI15],10
18,Cc1c(C(=O)c2cccnc2)[n+]([O-])c2ccc([N+](=O)[O-])cc2[n+]1[O-] [SRI13],20

row,Structure (SMILES),Mtb MIC (H37Rv) [µg/mL]
1,COc1ccc2c(c1)[n+]([O-])c(C(C)=O)c(C)[n+]2[O-] [SRI3],10
2,"O=C(NCc1ccccn1)c1ccccc1[N+](=O)[O-] [BAS 00623753, 2-nitro-N-pyridin-2-ylmethyl-benzamide]",5
3,CC(C)=CCC/C(C)=C/CCC(=O)c1c(C)[n+]([O-])c2ccc(Cl)cc2[n+]1[O-] [SRI49],5
4,Cc1c(C(=O)CC(C)C)[n+]([O-])c2cc(Cl)c(Cl)cc2[n+]1[O-] [SRI60],2.5
5,CCC(=O)c1c(C)[n+]([O-])c2ccc(C)cc2[n+]1[O-] [SRI37],10
6,CCC(=O)c1c(CC)[n+]([O-])c2ccc(OC)cc2[n+]1[O-] [SRI41],40
7,CCCCC(=O)c1c(C)[n+]([O-])c2ccc(OC)cc2[n+]1[O-] [SRI39],10
8,CCC(=O)c1c(C)[n+]([O-])c2ccc(OC)cc2[n+]1[O-] [SRI46],20
9,CC(C)=CCCC(=O)c1c(C)[n+]([O-])c2cc(Cl)c(Cl)cc2[n+]1[O-] [SRI57],1.25
10,C=CCCC(=O)c1c(C)[n+]([O-])c2ccc(OC)cc2[n+]1[O-] [SRI44],20
11,COc1ccc2c(c1)[n+]([O-])c(C(=O)CC/C=C(\C)CCC=C(C)C)c(C)[n+]2[O-] [SRI47],20
12,CC(C)=CCCC(=O)c1c(C)[n+]([O-])c2cc(Cl)ccc2[n+]1[O-] [SRI29],5
13,CC(C)=CCC/C(C)=C/CCC(=O)c1c(C)[n+]([O-])c2ccccc2[n+]1[O-] [SRI51],5
14,COc1ccc2c(c1)[n+]([O-])c(C(=O)CCC=C(C)C)c(C)[n+]2[O-] [SRI45],20
15,Cc1c(C(=O)O)[n+]([O-])c2ccccc2[n+]1[O-] [SRI53],>40
16,CC(=O)c1c(C)[n+]([O-])c2ccc(C)cc2[n+]1[O-] [SRI2],5.0
17,Cc1c(C(=O)c2cccnc2)[n+]([O-])c2ccc(Cl)cc2[n+]1[O-] [SRI11],10
18,C=CCCC(=O)c1c(C)[n+]([O-])c2cc(Cl)c(Cl)cc2[n+]1[O-] [SRI61],2.5

# Same assay, conditions: synthesized BAS 00623753 and arylamide analogs (Table 1)
row,Structure (SMILES),Mtb MIC (H37Rv) [µg/mL]
1,Cc1ccnc(CNC(=O)c2ccccc2[N+](=O)[O-])c1 [JSF-2173],>50
2,O=C(NCc1cnccn1)c1ccccc1[N+](=O)[O-] [JSF-2171],>50
3,Cc1cccnc1CNC(=O)c1ccccc1[N+](=O)[O-] [JSF-2172],>50
4,O=C(NCc1ccc(Cl)cn1)c1ccccc1[N+](=O)[O-] [JSF-2174],>50
5,O=C(NCc1ccccn1)c1ccccc1[N+](=O)[O-] [JSF-2210],>50
6,O=C(NCc1ccccn1)c1ccccc1F [JSF-2208],>50
7,O=C(NCc1ccccn1)c1ccccc1C(F)(F)F [JSF-2211],>50
8,O=C(NCCc1ccccn1)c1ccccc1[N+](=O)[O-] [JSF-2170],>50
9,O=C(NCc1ccncn1)c1ccccc1[N+](=O)[O-] [JSF-2177],>50
10,Cc1ccccc1C(=O)NCc1ccccn1 [JSF-2209],>50
11,Cc1ccc(CNC(=O)c2ccccc2[N+](=O)[O-])nc1 [JSF-2175],>50
12,O=C(NCc1ccccn1)c1ccccc1 [JSF-2133],>50

# Test system: not listed separately
# Experiment: in vitro
# Details: African green monkey
row,Structure (SMILES),CC50 at 72 h [µg/mL]
1,CC(C)=CCC/C(C)=C/CCC(=O)c1c(C)[n+]([O-])c2cc(Cl)c(Cl)cc2[n+]1[O-] [SRI56],4.5
2,CC(C)=CCCC(=O)c1c(C)[n+]([O-])c2cc(Cl)c(Cl)cc2[n+]1[O-] [SRI57],> 40
3,CC(=O)c1c(C)[n+]([O-])c2ccc(Cl)cc2[n+]1[O-] [SRI4],> 40
4,COc1ccc2c(c1)[n+]([O-])c(C(=O)c1cccnc1)c(C)[n+]2[O-] [SRI12],1.7
5,Cc1c(C(=O)c2cccnc2)[n+]([O-])c2cc(Cl)c(Cl)cc2[n+]1[O-] [SRI55],> 40

# Source: PMC4627656, “Combining Metabolite-Based Pharmacophores with Bayesian Machine Learning Models for Mycobacterium tuberculosis Drug Discovery” (PLoS ONE, 2015)
